From article PMC7476584, “Lipophilicity trends upon fluorination of isopropyl, cyclopropyl and 3-oxetanyl groups” (Beilstein Journal of Organic Chemistry, 2020)
Where “and” joins values, the source holds several entries; their conditions need not be identical. Equal entries are not always repeated. Where two headings read alike, the source gives them in different places. One block for each compound: values may come before it.

What was measured:
[1] = Table S1; ref Hansch, Leo, Hoekman, Exploring QSAR, 1995; cited from earlier work
[2] = cited from earlier work
[3] = parameters: method as in PMID 31414105, PMID 29999054; settings: series B, reversed-phase HPLC; cited from earlier work
[4] = 19F NMR-based octanol/water logP determination; settings: for logP: n-octanol/water; for logP / logP (individual measurement): octanol/water, 25 °C, 19F NMR
[5] = SMD implicit solvation, MN15; values taken from the literature; cited from earlier work
[6] = Shake-flask lipophilicity (logP, logD7.4) of literature examples; format: physicochemical; settings: geminal dimethyl 1 to cyclopropyl 2
[7] = logP (average logP), triplicate
[8] = logP (individual measurement), single experiment
[9] = logP average with error (standard deviation), triplicate, column Error

Compound: CCCCCCCO [1-heptanol]
Experimental logP for selected nonfluorinated alkanols [1]: 2.72

Compound: CC(C)(C)CO [2,2-dimethylpropan-1-ol]
Experimental logP for selected nonfluorinated alkanols [1]: 1.31

Compound: CCCCCC(C)O (centres unmarked) [2-heptanol]
Experimental logP for selected nonfluorinated alkanols [1]: 2.31

Compound: CCCCC(C)O (centres unmarked) [2-hexanol]
Experimental logP for selected nonfluorinated alkanols [1]: 1.76

Compound: CCCCCCC(C)O (centres unmarked) [2-octanol]
Experimental logP for selected nonfluorinated alkanols [1]: 2.90

Compound: CCCC(O)CC (centres unmarked) [3-hexanol]
Experimental logP for selected nonfluorinated alkanols [1]: 1.65

Compound: CC(C)C(C)O (centres unmarked) [3-methyl-2-butanol]
Experimental logP for selected nonfluorinated alkanols [1]: 1.28

Compound: CCC(O)CC [3-pentanol]
Experimental logP for selected nonfluorinated alkanols [1]: 1.21

Compound: CCCC(O)CCC [4-heptanol]
Experimental logP for selected nonfluorinated alkanols [1]: 2.22

Compound: CCCCC(O)CCC (centres unmarked) [4-octanol]
Experimental logP for selected nonfluorinated alkanols [1]: 2.68

Compound: C[C@@](CCN1Cc2cc(C#CC#C[C@H]3C[C@@H]3CO)cn2C1=O)(C(=O)NO)S(C)(=O)=O [7a]
logD7.4 ([2]; pH 7.4): 1.3

Compound: C[C@@](CCN1Cc2cc(C#CC#C[C@H]3C[C@]3(F)CO)cn2C1=O)(C(=O)NO)S(C)(=O)=O [7b]
logD7.4 ([2]; pH 7.4): 0.9

Compound: C[C@@](CCN1Cc2cc(C#CC#C[C@@H]3C[C@H]3CO)cn2C1=O)(C(=O)NO)S(C)(=O)=O [7c]
logD7.4 ([2]; pH 7.4): 1.1

Compound: C[C@@](CCN1Cc2cc(C#CC#C[C@@H]3C[C@@]3(F)CO)cn2C1=O)(C(=O)NO)S(C)(=O)=O [7d]
logD7.4 ([2]; pH 7.4): 0.9

Compound: c1ccc(C2CC2)cc1 [B1]
logP [3]: +3.40

Compound: F[C@@H]1[C@H](F)[C@@]1(F)c1ccccc1 [B2]
logP [3]: +2.56

Compound: FC1(F)CC1c1ccccc1 (centres unmarked) [B6]
logP [3]: +2.91

Compound: FC1(F)CC1(F)c1ccccc1 (centres unmarked) [B7]
logP [3]: +2.94

Compound: CN(C)CCCCc1ccc(C2COC2)cc1 [C1]
logD7.4 ([2]; pH 7.4): –0.1

Compound: CN(C)CCCCc1ccc(C2(F)COC2)cc1 [C2]
logD7.4 ([2]; pH 7.4): –0.5

Δ logP branched vs linear ([4]; D2 vs G2): 0.16
logP [4, 7]: 0.1
logP [4, 8]: 0.11
logP [4, 9]: 0.104
logP (individual measurement) ([4]; single experiment): +0.10
Compound: CC(C)(F)CO [D2, 2-fluoro-2-methylpropan-1-ol]

Compound: CC(CO)CF (centres unmarked) [D3, 3-fluoro-2-methylpropan-1-ol]
logP (physchem; logP (average logP)): 0.29
logP (physchem; logP (individual measurement)): 0.28
logP (physchem; logP average with error (standard deviation)): 0.289

logP [4, 7]: 0.58
logP [4, 8]: 0.583
logP [4, 9]: 0.583
logP (individual measurement) ([4]; single experiment): +0.576 and +0.589
Compound: CC(CO)C(F)F (centres unmarked) [D4, 3,3-difluoro-2-methylpropan-1-ol]

logP [4, 7]: 0.98
logP [4, 8]: 0.977
logP [4, 9]: 0.978
logP (individual measurement) ([4]; single experiment): +0.978 and +0.979
Compound: CC(CO)C(F)(F)F (centres unmarked) [D5, 3,3,3-trifluoro-2-methylpropan-1-ol]

logP reduction ([4]; G9 to E2): 0.72 logP units
logP [4, 7]: -0.05
logP [4, 9]: -0.054
logP (individual measurement) ([4]; single experiment): -0.06
Compound: OCC1(F)CC1 [E2, (1-fluorocyclopropyl)methanol]

Compound: OCCC(F)CF (centres unmarked) [G7, 3,4-difluorobutan-1-ol]
logPtheor (DFT) [5]: 1.06

Compound: OCCC(F)(F)CF [G8]
logPtheor (DFT) [5]: 1.30

ΔlogD7.4 [6]: +0.73
ΔlogP [6]: +0.34
Compound: O=C(c1ccc(CN2CCOCC2)cc1)N1CCN(C2CC2)CC1 [compound 2]

Compound: CN(C)CCCCc1ccc(C(C)(C)C)cc1 [compound 3]
logD7.4 ([2]; pH 7.4): 2.5

Compound: CN(C)CCCCc1ccc(C2(C)COC2)cc1 [compound 4]
logD7.4 ([2]; shake-flask): -0.1
logP ([2]; shake-flask): 2.4
